Source: a melting point compilation (Tetko et al.)

Row | melting point | Structure (SMILES)
1 | 10 °C | NCc1ccccc1
2 | 67.5 °C | COc1ccccc1N1CCN(CCCC(=O)c2ccc(F)cc2)CC1
3 | 77 to 78 °C | O=S(=O)(Cl)c1cccc2nonc12
4 | 128 °C | Cc1c(C)c(C)c(O)c(C)c1C
5 | 131 °C | O=C(O)[C@H](O)[C@@H](O)[C@H](O)[C@H](O)CO
6 | 83 °C | CC(C)(C)c1cc(Br)cc(C(C)(C)C)c1O
7 | 131 °C | O=C(c1ccc2ccccc2c1)c1noc(-c2ccc([N+](=O)[O-])cc2)c1S(=O)(=O)c1ccccc1
8 | 75 to 77 °C | N#CCc1cccc(CC#N)c1F
9 | -11 °C | C1=C(c2ccccc2)CCCC1
10 | 166 °C | O=c1ccn(C2CC(O)C(CO)O2)c(=O)[nH]1 (configuration not stated)
11 | -6 °C | CCC(C)(O)C(C)(C)C (configuration not stated)
12 | 307 °C | Nc1ccc([N+](=O)[O-])c2c1C(=O)c1c(Cl)ccc(Cl)c1C2=O
13 | 242 to 250 °C | O=C1Nc2ccc(Cl)cc2C1=O
14 | 271 to 274 °C | O=C(O)c1cc(Br)c(O)c(Br)c1
15 | 40 to 47 °C | CC(=O)c1ccc(-c2ccccc2OC(F)(F)F)o1
16 | 102 °C | COc1ccc2cc(Nc3ccc4c(c3)OCCO4)ccc2c1
17 | 183 to 189 °C | Cc1cccc2c1C(=O)NC2=O
18 | 214 °C | CCN(CC)c1ccc2cc(C(=O)c3cc4ccc(N(CC)CC)cc4oc3=O)c(=O)oc2c1
19 | 177 to 179 °C | Nc1nnc(-c2ccccc2)c(-c2ccccc2)n1
20 | 45 to 46.5 °C | CC(=O)CC(=O)OCc1ccc([N+](=O)[O-])cc1
21 | 124 to 129 °C | CCOC(=O)C=P(c1ccccc1)(c1ccccc1)c1ccccc1
22 | 32 to 38 °C | Cc1ccc([N+](=O)[O-])c(C)n1
23 | 10 °C | CCCC(=O)c1ccccc1O
24 | 143 to 148 °C | Clc1ccc2nc(Cl)c(Cl)nc2c1

Row | melting point | Structure (SMILES)
25 | 105 to 107 °C | CSC(=NS(=O)(=O)c1ccccc1)SC
26 | 310 °C | Oc1cc(O)cc(-c2cc(O)cc(O)c2)c1
27 | 179 °C | CN(C)CCc1c[nH]c2ccc(Cn3cncn3)cc12
28 | 140 to 142 °C | O=C(Nc1cccnc1Cl)c1ccc(F)cc1
29 | 128 to 134 °C | O=C(O)C1(c2c(F)cccc2Cl)CCCCC1
30 | 163 °C | OCCN(CCO)c1nc(N2CCCCC2)c2nc(N(CCO)CCO)nc(N3CCCCC3)c2n1
31 | 35 to 39 °C | O=C=Nc1ccc2c(c1)OCCOCCOCCOCCO2
32 | 234 °C | COC(=O)CCC(C)C1CCC2=C3CCC4CC(OC(C)=O)CCC4(C)C3CC(OC(C)=O)C21C (configuration not stated)
33 | 121 °C | COc1cc(C(=O)c2cccc(C)c2)c([N+](=O)[O-])cc1OC
34 | 43 to 48 °C | Cn1nc(CO)cc1-c1ccco1
35 | 96 to 97 °C | CC(=O)OCCOc1cc(OC(C)=O)c2c(=O)c(OC(C)=O)c(-c3ccc(OCCOC(C)=O)c(OCCOC(C)=O)c3)oc2c1
36 | 140 to 143 °C | Nc1ccc(C(=O)c2ccccc2)cc1[N+](=O)[O-]
37 | 64 °C | C=CC(=O)NC(C)C
38 | 232 °C | NC(CCS)C(=O)O (configuration not stated)
39 | 214 °C | Cn1c(C(C#N)c2ncccc2[N+](=O)[O-])nc2ccccc21 (configuration not stated)
40 | 5 °C | OCc1ccccn1
41 | 199 to 200 °C | CSc1nc(N)c(C(N)=O)s1
42 | 44 °C | CCCCCCCCCCCCCCCCCCNC
43 | 255 °C | O=C1OCCN1N=Cc1ccc([N+](=O)[O-])o1
44 | 245 to 252 °C | Cc1cc(Br)c2c(c1N)C(=O)c1ccccc1C2=O
45 | 137 °C | Nc1ccc(Cl)cn1
46 | -16.5 °C | CC/C=C\C/C=C\C/C=C\CCCCCCCC(=O)O
47 | 176 to 177 °C | O=P(c1ccccc1)(c1ccccc1)C1C=COC2=C1CCCC2 (configuration not stated)
48 | 103 to 104 °C | C/C(CCc1oc2ccc(C)cc2c1-c1ccc(C)o1)=N/O

Row | melting point | Structure (SMILES)
49 | 107 °C | Brc1cnc(N2CCCCC2)nc1OCc1ccccc1
50 | 90 °C | COc1c(Cl)c(Cl)c(Cl)c(Cl)c1OC
51 | 63 °C | CCOC(=O)C(=CN)C(=O)OCC
52 | 193 °C | O=C(O)Cn1c(=O)sc2cccc(Cl)c21
53 | 116 °C | CC(OCc1ccccc1)C(NC(=O)OC(C)(C)C)C(=O)O (configuration not stated)
54 | 110 °C | CC(C)(C)OC(=O)C1(S(=O)(=O)c2ccc(Cl)cc2)CC1
55 | 271 °C | CN(C)c1ccc(C2C3=C(CC(C)(C)CC3=O)Nc3c2ccc2ccccc32)cc1 (configuration not stated)
56 | 127 to 128 °C | O=C(Cl)c1ccc(-n2cccn2)cc1
57 | 39 °C | O=[N+]([O-])c1cccc(OCCBr)c1
58 | 48 to 52 °C | Cc1cncc(Cl)n1
59 | 210 to 211 °C | Oc1cc(-c2ccccc2)c2cc(Br)cc(Br)c2n1
60 | 85 to 86 °C | Cc1nc(-c2ccc(C(F)(F)F)cc2)sc1C(=O)Cl
61 | 163 °C | NC(=S)c1ccno1
62 | 124 °C | CC(=O)Oc1ccc(OC(C)=O)c2ccccc12
63 | 27 °C | COc1ccc(Cl)c(N)c1
64 | 177 to 178 °C | CC(=O)OC1C2=C(C(=O)C(O)C3(CC3C)C2=O)C2(C)CCC(C)=C(C)C2C1O (configuration not stated)
65 | 204 °C | Clc1cc(Cl)c2oc3c(Cl)c(Cl)cc(Cl)c3c2c1
66 | 88 to 90 °C | O=C(O)CCC1CCCCCCCCCCC1=O (configuration not stated)
67 | 48 °C | CC(C)[Si](C(C)C)(C(C)C)C1SCCCS1
68 | 157 to 160 °C | O=C1CC2C(Cl)CC1C2C(=O)O (configuration not stated)
69 | 183 to 185 °C | O=C(Nc1ccccc1Br)C(C(F)(F)F)C(F)(F)F
70 | 139 to 141 °C | O=Cc1cccn1S(=O)(=O)c1ccccc1[N+](=O)[O-]
71 | -100 °C | FC(F)(F)C(F)(F)C(F)(F)C(F)(F)OC(F)(F)C(F)(F)C(F)(F)C(F)(F)F
72 | 50 °C | CCCCCCCCCCCCCCCCCCCC(=O)OCC

Row | melting point | Structure (SMILES)
73 | 193 to 195 °C | COC(=O)c1sc(SC)c(S(=O)(=O)C(C)C)c1I
74 | -103 °C | C#CC
75 | 160 °C | Cc1nc2ccccc2[nH]c(=O)c1=NNc1cc(-c2ccccc2)n[nH]1
76 | 195 °C | NCCCCCCCC(=O)O
77 | 104 °C | CNC(=O)c1cccnc1
78 | 86 °C | Nc1cccc(C(c2cccc(N)c2)(C(F)(F)F)C(F)(F)F)c1
79 | 46 °C | COc1cc(O)cc(OC)c1
80 | 97.5 °C | CCN(CC)c1ccc(N=Nc2ccccc2)cc1
81 | 268 to 270 °C | CSc1nc2[nH]c(=S)n(-c3ccccc3)c(=O)c2n1C
82 | 92 to 96 °C | CC(C)(C)C(=O)Oc1ccc([N+](=O)[O-])cc1
83 | 111 °C | CS(=O)c1cccc(CC(=O)O)c1 (configuration not stated)
84 | 127 °C | CCOC(=O)C(=O)C(C#N)c1ccccc1 (configuration not stated)
85 | 12 °C | Fc1c(F)c(F)c(Br)c(Br)c1F
86 | 105 to 106 °C | CC(=O)c1cc([N+](=O)[O-])c(Br)s1
87 | 154 to 158 °C | CN1C(=O)Cc2cc(S(=O)(=O)Cl)ccc21
88 | 170 to 171 °C | CC(C)S(=O)(=O)c1csc(C(=O)Cl)c1Cl
89 | 177 °C | CC1=NN(CN2CCCCC2)C(=O)/C1=N\Nc1cccnc1
90 | 220 °C | COc1ccc(-c2nnc3n2NC(c2ccccc2O)S3)cc1 (configuration not stated)
91 | 85 °C | OCC(Br)C(Br)CO (configuration not stated)
92 | -22 °C | CCCCCCCCCCCCC(C)CC (configuration not stated)
93 | 8 to 9 °C | FC(F)(F)c1cnc(Cl)c(Cl)c1
94 | 69 to 70 °C | CS(=O)(=O)OS(C)(=O)=O
95 | 197 °C | O=C(O)c1cc2cc(OCc3ccccc3)ccc2[nH]1
96 | 46 °C | CC(=O)c1ccc(C(C)=O)c([N+](=O)[O-])c1

Row | melting point | Structure (SMILES)
97 | -20 °C | C=C(C)c1ccc(C)cc1
98 | 73 to 75 °C | Cc1ccc(-c2csnn2)cc1
99 | 146 to 150 °C | Cc1ccc([N+](=O)[O-])c(N)n1
100 | 134 to 137 °C | CC(C)(C(=O)O)C(O)c1ccccc1 (configuration not stated)
101 | 101 to 102 °C | O=Cc1ccc(-c2ccsc2)cc1
102 | 25 °C | C=CC(C)(O)CCC=C(C)CCC=C(C)C (configuration not stated)
103 | 143 to 146 °C | CCOC(=O)c1sc(SC)c(S(=O)(=O)C(C)C)c1N
104 | 266 °C | CC1CCC2(OC1)OC1CC3C4CCC5CC(O)CCC5(C)C4CC(=O)C3(C)C1C2C (configuration not stated)
105 | 94 °C | O=C(NC(CO)Cc1ccccc1)OCc1ccccc1 (configuration not stated)
106 | 130 °C | COCCOc1ccccc1S(=O)(=O)NC(=O)Nc1nc(OC)nc(OC)n1
107 | 29 °C | N#CCc1ccc(OC(F)(F)F)cc1
108 | 223 to 225 °C | CSc1nc2ccccc2c(=O)[nH]1
109 | 112 to 113 °C | CC(NC(=O)OCc1ccccc1)C(=O)O (racemic)
110 | 182 °C | O=[N+]([O-])c1ccc(SSc2ccc([N+](=O)[O-])cc2)cc1
111 | 26 to 28 °C | CC(=O)c1cccc(N=C=S)c1
112 | 82 to 84 °C | CNC(=O)CC#N
113 | 90 to 94 °C | CCOC(=O)/C(C#N)=C(/SC)N(C)C
114 | 39 °C | O=S(=O)(N(c1ccccn1)S(=O)(=O)C(F)(F)F)C(F)(F)F
115 | 189 to 191 °C | O=C(O)c1cccc2c1OCCO2
116 | -10 °C | CC(C)C(C)(C)Cl
117 | 66 to 68 °C | CCCCc1ccc(/N=N/c2ccc(OCCC)cc2)cc1

Row | Structure (SMILES) | melting point
118 | CCC1(CC2(c3cccc(Cl)c3)CO2)C(=O)c2ccccc2C1=O (configuration not stated) | 61 °C
119 | C#CC1(O)CCC2(C)C(CCC3C4CCC(=O)C4(C)CCC32)C1 (configuration not stated) | 237 to 238 °C
120 | CN1C(=O)C(=NNc2ccc(Br)cc2)C(=O)N(C)C1=O | 218 °C
121 | O=Cc1c([N+](=O)[O-])cccc1[N+](=O)[O-] | 119 °C
122 | CC(O)CN(CC(C)O)CC(C)O (configuration not stated) | 48 to 52 °C
123 | NC(CO)Cc1ccccc1 (configuration not stated) | 91.5 °C
124 | COc1ccccc1-c1ccc(C=C2C(=O)NC(=O)NC2=O)o1 | 220 °C
125 | C=CCN(CC=C)C(=O)CCl | 25 °C
126 | O=C(NC(=O)c1c(F)cccc1F)Nc1cc(Cl)c(OC(F)(F)C(F)F)c(Cl)c1 | 204 °C
127 | CC(C)(C#N)C#N | 31.5 °C
